Patent publication US12172983B2, “EGFR inhibitors” (Blueprint Medicines Corporation, priority 2019, dated 2024)
Like-named read-outs stand apart in the source and are kept apart here.

Columns and labels:
EGFR (L858R T790M C797S) = target: T1, EGFR (L858R T790M C797S) (Homo sapiens, UniProt P00533, C797S/L858R/T790M); assay: Biochemical EGFR inhibition assay (Caliper mobility shift), EGFR LRTMCS mutant; details: inhibitory activity against EGFR LRTMCS mutant; apparent IC50; read-out: Ext Enz LRTMCS
T1 construct: purchased SignalChem E10-122VG
T1 sequence (P00533 25-1210 T790M/C797S/L858R): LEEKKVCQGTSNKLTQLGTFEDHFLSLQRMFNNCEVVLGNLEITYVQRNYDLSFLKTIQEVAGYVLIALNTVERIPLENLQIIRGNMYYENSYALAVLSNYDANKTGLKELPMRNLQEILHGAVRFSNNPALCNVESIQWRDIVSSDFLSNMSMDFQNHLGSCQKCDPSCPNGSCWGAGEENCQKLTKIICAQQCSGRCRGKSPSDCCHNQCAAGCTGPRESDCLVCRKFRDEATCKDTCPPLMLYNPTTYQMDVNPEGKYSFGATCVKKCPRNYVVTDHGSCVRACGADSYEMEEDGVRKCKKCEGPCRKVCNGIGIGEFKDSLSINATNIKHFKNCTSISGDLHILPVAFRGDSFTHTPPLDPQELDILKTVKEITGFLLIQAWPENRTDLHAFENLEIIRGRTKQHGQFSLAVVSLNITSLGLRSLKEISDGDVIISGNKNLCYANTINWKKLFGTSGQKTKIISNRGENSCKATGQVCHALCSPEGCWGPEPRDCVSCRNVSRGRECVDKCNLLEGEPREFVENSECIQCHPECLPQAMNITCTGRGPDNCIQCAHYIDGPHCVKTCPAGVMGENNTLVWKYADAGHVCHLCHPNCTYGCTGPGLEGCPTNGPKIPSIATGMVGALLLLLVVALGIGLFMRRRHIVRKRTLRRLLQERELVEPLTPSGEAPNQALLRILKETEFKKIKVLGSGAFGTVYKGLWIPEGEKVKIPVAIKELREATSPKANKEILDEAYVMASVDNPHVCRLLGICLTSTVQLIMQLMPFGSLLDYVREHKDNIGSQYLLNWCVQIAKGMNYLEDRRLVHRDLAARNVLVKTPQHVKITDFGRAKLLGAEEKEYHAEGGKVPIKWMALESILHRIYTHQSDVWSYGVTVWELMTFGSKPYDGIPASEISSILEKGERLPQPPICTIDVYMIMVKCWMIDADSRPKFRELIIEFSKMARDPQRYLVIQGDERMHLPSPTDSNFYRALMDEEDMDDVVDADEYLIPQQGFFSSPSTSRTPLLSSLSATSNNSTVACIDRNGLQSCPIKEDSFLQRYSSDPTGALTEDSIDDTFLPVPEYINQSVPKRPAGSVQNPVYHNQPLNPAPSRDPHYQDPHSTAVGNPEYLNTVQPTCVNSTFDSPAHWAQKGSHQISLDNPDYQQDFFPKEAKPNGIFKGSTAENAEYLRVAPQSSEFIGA
How it was run: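 Caliper mobility shift read-out: product and substrate peptides separated by electrophoresis and quantified. Reactions at 25° C. taken to 10–20% peptide phosphorylation, quenched with 35 mM EDTA. Apparent IC50 from percent activity vs log [compound].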

[1] = system: phosphorylation of EGFR (Tyr1068) in NCI-H1975 cell line that harbors the EGFR L858R T790M mutations; assay: NCI-H1975 pEGFR AlphaLISA assay; format: cell-based; details: 4-5 hours incubation, read-out: Ext pEGFR H1975
How it was run: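 Phospho-EGFR Tyr1068 AlphaLISA readout: lysates taken from compound-treated H1975 cells (L858R T790M EGFR) after a 4-5 h exposure at 37 °C. Cells had adhered overnight beforehand. IC50 derived by plotting % pEGFR inhibition against log compound concentration.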

[2] = inhibition of phosphorylation of mutant EGFR in NCI-H1975 cells
[3] = Homo sapiens, NCI-H1975, inhibition of phosphorylation of mutant EGFR in NCI-H1975 cells

| Compound | IC50 (EGFR (L858R T790M C797S)) [nM] | IC50 [1, 2] [nM] | IC50 [1, 3] [nM] |
| --- | --- | --- | --- |
| CO[C@H]1CCN(c2nccc(Nc3cc4c(C(C)C)cnc(N5CC(C[S@@](C)(=N)=O)[C@H]5C)c4cn3)n2)C[C@H]1F (single isomer, unassigned) [Compound 108, (1S)-(((2R)-1-(6-((2-((3R,4S)-3-fluoro-4-methoxypiperidin-1-yl)pyrimidin-4-yl)amino)-4-isopropyl-2,7-naphthyridin-1-yl)-2-methylazetidin-3-yl)methyl)(imino)(methyl)-λ^6-sulfanone or (1R)-(((2R)-1-(6-((2-((3R,4S)-3-fluoro-4-methoxypiperidin-1-yl)pyrimidin-4-yl)amino)-4-isopropyl-2,7-naphthyridin-1-yl)-2-methylazetidin-3-yl)methyl)(imino)(methyl)-λ^6-sulfanone] | ≤ 15 | ≤ 10 | – |
| CO[C@H]1CCN(c2nccc(Nc3cc4c(C(C)C)ncc(N5C[C@H](CS(C)(=O)=O)[C@H]5C)c4cn3)n2)C[C@@H]1O (single isomer, unassigned) [Compound 104, (3S,4S)-1-(4-(5-isopropyl-8-((2R,3S)-2-methyl-3-(methylsulfonylmethyl)azetidin-1-yl)-2,6-naphthyridin-3-ylamino)pyrimidin-2-yl)-4-methoxypiperidin-3-ol or (3R,4R)-1-(4-(5-isopropyl-8-((2R,3S)-2-methyl-3-(methylsulfonylmethyl)azetidin-1-yl)-2,6-naphthyridin-3-ylamino)pyrimidin-2-yl)-4-methoxypiperidin-3-ol] | ≤ 15 | – | 10.1 to 20 |
| CC(C)c1ccc(N2CC(CS(C)(=O)=O)C2)c2cnc(Nc3ccnc(N4CC[C@@](F)([C@@H](C)O)C4)n3)cc12 (single isomer, unassigned) [Compound 59, (1R)-1-[(3S)-3-fluoro-1-[4-({8-[3-(methanesulfonylmethyl)azetidin-1-yl]-5-(propan-2-yl)isoquinolin-3-yl}amino)pyrimidin-2-yl]pyrrolidin-3-yl]ethan-1-ol or (1S)-1-[(3R)-3-fluoro-1-[4-({8-[3-(methanesulfonylmethyl)azetidin-1-yl]-5-(propan-2-yl)isoquinolin-3-yl}amino)pyrimidin-2-yl]pyrrolidin-3-yl]ethan-1-ol] | ≤ 15 | – | 10.1 to 20 |
| CC(C)c1ccc(N2C[C@H](CS(C)(=O)=O)[C@H]2C)c2cnc(Nc3ccnc(N4CCN(C)CC4)n3)cc12 [Compound 16, 8-[(2R,3S)-3-(methanesulfonylmethyl)-2-methylazetidin-1-yl]-N-[2-(4-methylpiperazin-1-yl)pyrimidin-4-yl]-5-(propan-2-yl)isoquinolin-3-amine] | 20.1 to 30 | – | 10.1 to 20 |
| CO[C@H]1CN(c2nccc(Nc3cc4c(C(C)C)cnc(N5C[C@H](CS(C)(=O)=O)[C@H]5C)c4cn3)n2)C[C@@H](F)[C@H]1O (single isomer, unassigned) [Compound 308, (3R,4S,5S)-3-fluoro-1-[4-({8-[(2R,3S)-3-(methanesulfonylmethyl)-2-methylazetidin-1-yl]-5-(propan-2-yl)-2,7-naphthyridin-3-yl}amino)pyrimidin-2-yl]-5-methoxypiperidin-4-ol or (3S,4R,5R)-3-fluoro-1-[4-({8-[(2R,3S)-3-(methanesulfonylmethyl)-2-methylazetidin-1-yl]-5-(propan-2-yl)-2,7-naphthyridin-3-yl}amino)pyrimidin-2-yl]-5-methoxypiperidin-4-ol] | ≤ 15 | – | 10.1 to 20 |
| CCS(=O)(=O)C[C@H]1CN(c2ccc(C(C)C)c3cc(Nc4ccnc(N5CC[C@H](OCCO)[C@H](F)C5)n4)ncc23)[C@@H]1C [Compound 243, 2-((3R,4S)-1-(4-(8-((2R,3S)-3-(ethylsulfonylmethyl)-2-methylazetidin-1-yl)-5-isopropylisoquinolin-3-ylamino)pyrimidin-2-yl)-3-fluoropiperidin-4-yloxy)ethanol] | ≤ 15 | – | ≤ 10 |
| CCS(=O)(=O)C[C@H]1CN(c2ccc(C(C)C)c3cc(Nc4ccnc(N5CC[C@@H](OCCO)[C@@H](F)C5)n4)ncc23)[C@@H]1C [Compound 244, 2-((3S,4R)-1-(4-(8-((2R,3S)-3-(ethylsulfonylmethyl)-2-methylazetidin-1-yl)-5-isopropylisoquinolin-3-ylamino)pyrimidin-2-yl)-3-fluoropiperidin-4-yloxy)ethanol] | ≤ 15 | – | ≤ 10 |
| CC(C)c1ccc(N2CC(CS(C)(=O)=O)C2)c2cnc(Nc3ccnc(N4C[C@H]5COC[C@H]5C4)n3)cc12 [Compound 10, N-{2-[(3aR,6aS)-hexahydro-1H-furo[3,4-c]pyrrol-5-yl]pyrimidin-4-yl}-8-[3-(methanesulfonylmethyl)azetidin-1-yl]-5-(propan-2-yl)isoquinolin-3-amine] | ≤ 15 | – | 30.1 to 50 |
| CCS(=O)(=O)C[C@H]1CN(c2cccc3cc(Nc4ccnc(N5C[C@@H](F)[C@@H](O)C(C)(C)C5)n4)ncc23)[C@@H]1C (single isomer, unassigned) [Compound 66, (4S,5R)-1-[4-({8-[(2R,3S)-3-[(ethanesulfonyl)methyl]-2-methylazetidin-1-yl]isoquinolin-3-yl}amino)pyrimidin-2-yl]-5-fluoro-3,3-dimethylpiperidin-4-ol or (4R,5S)-1-[4-({8-[(2R,3S)-3-[(ethanesulfonyl)methyl]-2-methylazetidin-1-yl]isoquinolin-3-yl}amino)pyrimidin-2-yl]-5-fluoro-3,3-dimethylpiperidin-4-ol] | ≤ 15 | – | ≤ 10 |
| COC1(CN)CCN(c2nccc(Nc3cc4c(C(C)C)ccc(N5C[C@H](CS(C)(=O)=O)[C@H]5C)c4cn3)n2)CC1 [Compound 169, N-{2-[4-(aminomethyl)-4-methoxypiperidin-1-yl]pyrimidin-4-yl}-8-[(2R,3S)-3-(methanesulfonylmethyl)-2-methylazetidin-1-yl]-5-(propan-2-yl)isoquinolin-3-amine] | 15.1 to 20 | – | 30.1 to 50 |
| CC(C)c1ccc(N2C[C@H](CS(C)(=O)=O)[C@H]2C)c2cnc(Nc3ccnc(N4CC[C@H](O)C[C@H]4C)n3)cc12 (single isomer, unassigned) [Compound 49, (2R,4S)-1-[4-({8-[(2R,3S)-3-(methanesulfonylmethyl)-2-methylazetidin-1-yl]-5-(propan-2-yl)isoquinolin-3-yl}amino)pyrimidin-2-yl]-2-methylpiperidin-4-ol or (2S,4R)-1-[4-({8-[(2R,3S)-3-(methanesulfonylmethyl)-2-methylazetidin-1-yl]-5-(propan-2-yl)isoquinolin-3-yl}amino)pyrimidin-2-yl]-2-methylpiperidin-4-ol] | ≤ 15 | – | ≤ 10 |
| [2H]C([2H])([2H])O[C@H]1CCN(c2nccc(Nc3cc4c(C(C)C)cnc(N5C[C@H](CS(C)(=O)=O)[C@H]5C)c4cn3)n2)C[C@H]1F (single isomer, unassigned) [Compound 285] | ≤ 15 | – | ≤ 10 |
| CO[C@H]1CCN(c2nccc(Nc3cc4c(C(C)C)cnc(N5CC(C[S@@](C)(=N)=O)[C@H]5C)c4cn3)n2)C[C@H]1F (single isomer, unassigned) [Compound 107, (1S)-(((2R)-1-(6-((2-((3R,4S)-3-fluoro-4-methoxypiperidin-1-yl)pyrimidin-4-yl)amino)-4-isopropyl-2,7-naphthyridin-1-yl)-2-methylazetidin-3-yl)methyl)(imino)(methyl)-λ^6-sulfanone or (1R)-(((2R)-1-(6-((2-((3R,4S)-3-fluoro-4-methoxypiperidin-1-yl)pyrimidin-4-yl)amino)-4-isopropyl-2,7-naphthyridin-1-yl)-2-methylazetidin-3-yl)methyl)(imino)(methyl)-λ^6-sulfanone] | ≤ 15 | 10.1 to 20 | – |
| CCS(=O)(=O)C[C@@H]1CN(c2ncc(C(C)C)c3cc(Nc4ccnc(N5CC[C@@H](O)[C@@](C)(F)C5)n4)ncc23)[C@H]1C (single isomer, unassigned) [Compound 189] | ≤ 15 | – | ≤ 10 |
| CO[C@@H]1CN(c2nccc(Nc3cc4c(C(C)C)ccc(N5CC(CS(C)(=O)=O)C5)c4cn3)n2)C[C@H](F)[C@@H]1O (single isomer, unassigned) [Compound 149, (3S,4R,5R)-3-fluoro-1-[4-({8-[3-(methanesulfonylmethyl)azetidin-1-yl]-5-(propan-2-yl)isoquinolin-3-yl}amino)pyrimidin-2-yl]-5-methoxypiperidin-4-ol or (3R,4S,5S)-3-fluoro-1-[4-({8-[3-(methanesulfonylmethyl)azetidin-1-yl]-5-(propan-2-yl)isoquinolin-3-yl}amino)pyrimidin-2-yl]-5-methoxypiperidin-4-ol] | 15.1 to 20 | – | 10.1 to 20 |
| CO[C@@H]1CCN(c2nccc(Nc3cc4c(C(C)C)ccc(N5C[C@H](CS(C)(=O)=O)[C@H]5C)c4cn3)n2)C[C@]1(C)F (single isomer, unassigned) [Compound 185] | 20.1 to 30 | – | ≤ 10 |
| CO[C@H]1CCN(c2nccc(Nc3cc4c([C@@H](C)CO)cnc(N5C[C@H](CS(C)(=O)=O)[C@H]5C)c4cn3)n2)C[C@H]1F (single isomer, unassigned) [Compound 208, (2R)-2-[6-({2-[(3R,4S)-3-fluoro-4-methoxypiperidin-1-yl]pyrimidin-4-yl}amino)-1-[(2R,3S)-3-(methanesulfonylmethyl)-2-methylazetidin-1-yl]-2,7-naphthyridin-4-yl]propan-1-ol or (2S)-2-[6-({2-[(3R,4S)-3-fluoro-4-methoxypiperidin-1-yl]pyrimidin-4-yl}amino)-1-[(2R,3S)-3-(methanesulfonylmethyl)-2-methylazetidin-1-yl]-2,7-naphthyridin-4-yl]propan-1-ol] | ≤ 15 | – | 10.1 to 20 |
